Legend:
Test in all cases: Kinase profiling
Type in all cases: biochemical
[1] = molecular target: T1, TXK (Homo sapiens, UniProt P42681)
T1 construct: purchased ProQinase (Freiburg, Germany)
T1 sequence (P42681 1-527): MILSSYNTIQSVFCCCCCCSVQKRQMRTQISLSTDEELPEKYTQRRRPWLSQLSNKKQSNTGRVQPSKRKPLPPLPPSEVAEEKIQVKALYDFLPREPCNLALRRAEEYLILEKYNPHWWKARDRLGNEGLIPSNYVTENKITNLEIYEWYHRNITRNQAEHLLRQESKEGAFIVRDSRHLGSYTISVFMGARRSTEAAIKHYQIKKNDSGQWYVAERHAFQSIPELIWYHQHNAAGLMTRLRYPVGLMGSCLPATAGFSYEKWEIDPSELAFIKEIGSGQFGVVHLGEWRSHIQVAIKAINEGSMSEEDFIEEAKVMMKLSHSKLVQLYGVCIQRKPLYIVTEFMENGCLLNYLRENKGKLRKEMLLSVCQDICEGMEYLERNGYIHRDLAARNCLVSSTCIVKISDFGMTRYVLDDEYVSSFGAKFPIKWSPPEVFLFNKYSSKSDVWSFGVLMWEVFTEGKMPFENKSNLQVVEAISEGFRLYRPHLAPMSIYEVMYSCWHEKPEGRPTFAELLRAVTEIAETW
Experimental: (§1) The analysis was performed by ProQinase (Freiburg, Germany).

[2] = molecular target: T2, CAMK2A (Homo sapiens, UniProt Q9UQM7)
T2 construct: purchased ProQinase (Freiburg, Germany)
T2 sequence (Q9UQM7 whole entry): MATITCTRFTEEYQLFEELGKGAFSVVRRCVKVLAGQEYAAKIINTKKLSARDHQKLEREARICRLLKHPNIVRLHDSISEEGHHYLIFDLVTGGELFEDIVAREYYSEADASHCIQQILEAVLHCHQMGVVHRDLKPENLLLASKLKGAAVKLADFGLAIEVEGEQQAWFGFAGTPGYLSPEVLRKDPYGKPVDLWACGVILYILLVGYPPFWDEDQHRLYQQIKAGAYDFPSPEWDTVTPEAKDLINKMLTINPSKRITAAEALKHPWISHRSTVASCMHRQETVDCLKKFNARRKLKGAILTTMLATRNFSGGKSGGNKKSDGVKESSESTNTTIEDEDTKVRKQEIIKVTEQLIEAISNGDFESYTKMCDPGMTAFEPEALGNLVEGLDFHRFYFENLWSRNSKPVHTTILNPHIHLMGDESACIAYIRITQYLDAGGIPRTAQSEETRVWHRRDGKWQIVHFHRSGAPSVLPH
Experimental: as §1

[3] = molecular target: T3, FGFR3 (Homo sapiens, UniProt P22607)
T3 construct: purchased ProQinase (Freiburg, Germany)
T3 sequence (P22607 23-806): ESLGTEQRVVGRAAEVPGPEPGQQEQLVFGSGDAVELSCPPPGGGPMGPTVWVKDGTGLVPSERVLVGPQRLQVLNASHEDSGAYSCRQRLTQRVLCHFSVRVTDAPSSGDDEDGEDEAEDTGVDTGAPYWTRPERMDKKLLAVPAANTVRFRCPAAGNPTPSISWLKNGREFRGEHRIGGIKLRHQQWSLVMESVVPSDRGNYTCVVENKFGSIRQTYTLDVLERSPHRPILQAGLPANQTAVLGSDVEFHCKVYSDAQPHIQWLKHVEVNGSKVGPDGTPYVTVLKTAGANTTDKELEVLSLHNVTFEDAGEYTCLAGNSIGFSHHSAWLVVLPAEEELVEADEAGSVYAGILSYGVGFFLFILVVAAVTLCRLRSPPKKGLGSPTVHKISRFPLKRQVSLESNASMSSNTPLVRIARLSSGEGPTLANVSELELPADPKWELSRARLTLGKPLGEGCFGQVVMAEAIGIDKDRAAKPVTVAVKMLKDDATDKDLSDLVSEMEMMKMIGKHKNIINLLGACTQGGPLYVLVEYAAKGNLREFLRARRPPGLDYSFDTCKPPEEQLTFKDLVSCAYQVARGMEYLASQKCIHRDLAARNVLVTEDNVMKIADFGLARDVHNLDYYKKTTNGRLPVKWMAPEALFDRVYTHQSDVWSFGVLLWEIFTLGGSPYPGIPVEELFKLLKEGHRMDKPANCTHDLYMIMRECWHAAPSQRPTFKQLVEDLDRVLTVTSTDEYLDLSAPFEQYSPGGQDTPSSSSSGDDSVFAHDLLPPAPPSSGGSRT
Experimental: as §1

[4] = molecular target: T4, TLK1 (Homo sapiens, UniProt Q9UKI8)
T4 construct: purchased ProQinase (Freiburg, Germany)
T4 sequence (Q9UKI8 1-766): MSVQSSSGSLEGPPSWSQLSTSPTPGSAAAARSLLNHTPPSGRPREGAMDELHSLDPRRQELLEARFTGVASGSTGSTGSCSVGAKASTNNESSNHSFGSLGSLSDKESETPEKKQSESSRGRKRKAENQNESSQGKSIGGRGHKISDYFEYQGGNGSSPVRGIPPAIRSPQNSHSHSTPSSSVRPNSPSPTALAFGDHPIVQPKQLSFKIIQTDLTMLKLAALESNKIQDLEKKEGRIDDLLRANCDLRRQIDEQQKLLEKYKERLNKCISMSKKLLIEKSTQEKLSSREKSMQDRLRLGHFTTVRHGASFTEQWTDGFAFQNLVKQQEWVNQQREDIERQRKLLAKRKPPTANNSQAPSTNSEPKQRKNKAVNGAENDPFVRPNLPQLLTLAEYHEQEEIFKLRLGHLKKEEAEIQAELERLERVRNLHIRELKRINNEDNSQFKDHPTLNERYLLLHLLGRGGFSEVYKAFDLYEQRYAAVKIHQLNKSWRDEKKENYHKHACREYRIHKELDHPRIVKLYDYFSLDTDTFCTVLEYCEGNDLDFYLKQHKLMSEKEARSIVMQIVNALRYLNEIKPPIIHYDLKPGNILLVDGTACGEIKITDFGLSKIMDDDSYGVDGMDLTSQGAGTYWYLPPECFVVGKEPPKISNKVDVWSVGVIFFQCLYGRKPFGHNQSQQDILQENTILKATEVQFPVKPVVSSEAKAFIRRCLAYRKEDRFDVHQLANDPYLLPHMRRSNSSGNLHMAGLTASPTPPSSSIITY
Experimental: as §1

[5] = molecular target: T5, PKCdelta (Homo sapiens, UniProt Q05655)
T5 construct: purchased ProQinase (Freiburg, Germany)
T5 sequence (Q05655 whole entry): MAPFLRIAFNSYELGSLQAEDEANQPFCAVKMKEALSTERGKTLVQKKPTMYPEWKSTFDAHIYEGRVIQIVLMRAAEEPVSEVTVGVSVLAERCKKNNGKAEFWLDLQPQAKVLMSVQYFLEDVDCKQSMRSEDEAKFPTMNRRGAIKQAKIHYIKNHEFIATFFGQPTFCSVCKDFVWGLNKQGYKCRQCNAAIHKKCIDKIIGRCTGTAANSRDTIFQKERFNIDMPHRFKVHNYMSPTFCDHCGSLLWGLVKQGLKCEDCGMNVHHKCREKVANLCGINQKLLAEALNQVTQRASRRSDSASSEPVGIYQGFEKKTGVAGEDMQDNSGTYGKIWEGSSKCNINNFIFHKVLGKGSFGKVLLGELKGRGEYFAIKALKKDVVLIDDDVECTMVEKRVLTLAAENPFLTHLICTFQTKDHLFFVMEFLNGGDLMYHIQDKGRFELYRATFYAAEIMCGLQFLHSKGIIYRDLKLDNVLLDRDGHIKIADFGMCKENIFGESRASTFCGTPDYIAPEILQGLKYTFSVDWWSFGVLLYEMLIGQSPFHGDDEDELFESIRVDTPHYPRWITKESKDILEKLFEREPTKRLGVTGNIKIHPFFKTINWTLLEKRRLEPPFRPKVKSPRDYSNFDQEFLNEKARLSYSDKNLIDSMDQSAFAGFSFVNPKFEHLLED
Experimental: as §1

[6] = molecular target: T6, CDK2/CycD1 (Homo sapiens, UniProt P24941)
T6 construct: purchased ProQinase (Freiburg, Germany)
Experimental: as §1

[7] = molecular target: T7, PRKD2 (Homo sapiens, UniProt Q9BZL6)
T7 construct: purchased ProQinase (Freiburg, Germany)
T7 sequence (Q9BZL6 1-878): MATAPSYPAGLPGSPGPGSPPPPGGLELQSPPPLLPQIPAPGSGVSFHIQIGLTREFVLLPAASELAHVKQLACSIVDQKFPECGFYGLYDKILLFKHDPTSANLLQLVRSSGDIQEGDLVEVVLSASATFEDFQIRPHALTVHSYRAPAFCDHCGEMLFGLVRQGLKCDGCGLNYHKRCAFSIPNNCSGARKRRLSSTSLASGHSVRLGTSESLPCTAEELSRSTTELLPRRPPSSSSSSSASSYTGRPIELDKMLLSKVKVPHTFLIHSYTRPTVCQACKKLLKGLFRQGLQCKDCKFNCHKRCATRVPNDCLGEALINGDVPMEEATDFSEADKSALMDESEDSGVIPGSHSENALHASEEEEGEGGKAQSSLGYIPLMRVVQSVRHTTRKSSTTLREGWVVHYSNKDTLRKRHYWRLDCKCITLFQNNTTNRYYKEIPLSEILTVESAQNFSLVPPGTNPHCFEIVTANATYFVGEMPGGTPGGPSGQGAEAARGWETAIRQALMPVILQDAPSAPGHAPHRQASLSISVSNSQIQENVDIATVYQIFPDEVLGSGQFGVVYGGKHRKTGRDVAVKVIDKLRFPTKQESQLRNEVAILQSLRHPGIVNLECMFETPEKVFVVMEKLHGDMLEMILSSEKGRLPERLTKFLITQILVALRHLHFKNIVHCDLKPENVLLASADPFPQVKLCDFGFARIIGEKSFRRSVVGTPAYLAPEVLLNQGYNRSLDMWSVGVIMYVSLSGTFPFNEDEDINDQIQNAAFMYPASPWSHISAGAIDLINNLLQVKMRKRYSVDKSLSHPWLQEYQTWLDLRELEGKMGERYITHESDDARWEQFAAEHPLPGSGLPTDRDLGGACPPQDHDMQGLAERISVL
Experimental: as §1

[8] = molecular target: T8, JNK2 (Homo sapiens, UniProt P45984)
T8 construct: purchased ProQinase (Freiburg, Germany)
T8 sequence (P45984 whole entry): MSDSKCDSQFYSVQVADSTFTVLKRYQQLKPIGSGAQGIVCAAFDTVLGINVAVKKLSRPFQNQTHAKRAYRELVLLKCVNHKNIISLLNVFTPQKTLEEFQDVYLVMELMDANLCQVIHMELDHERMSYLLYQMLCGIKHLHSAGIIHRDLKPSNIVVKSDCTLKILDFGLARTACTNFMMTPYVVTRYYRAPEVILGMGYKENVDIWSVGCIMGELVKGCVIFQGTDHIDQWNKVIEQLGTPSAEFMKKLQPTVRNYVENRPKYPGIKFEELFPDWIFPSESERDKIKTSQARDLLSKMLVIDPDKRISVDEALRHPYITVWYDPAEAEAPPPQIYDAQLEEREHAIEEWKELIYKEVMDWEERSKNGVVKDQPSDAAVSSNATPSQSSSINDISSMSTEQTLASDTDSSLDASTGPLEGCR
Experimental: as §1

Structure (SMILES) | Residual activity ([1]; 1.0E-05 M) | Residual activity ([1]; 1.0E-06 M) | Residual activity ([2]; 1.0E-05 M) | Residual activity ([2]; 1.0E-06 M) | Residual activity ([3]; 1.0E-05 M) | Residual activity ([3]; 1.0E-06 M) | Residual activity ([4]; 1.0E-05 M) | Residual activity ([4]; 1.0E-06 M) | Residual activity ([5]; 1.0E-05 M) | Residual activity ([5]; 1.0E-06 M) | Residual activity ([6]; 1.0E-05 M) | Residual activity ([6]; 1.0E-06 M) | Residual activity ([7]; 1.0E-05 M) | Residual activity ([7]; 1.0E-06 M) | Residual activity ([8]; 1.0E-05 M) | Residual activity ([8]; 1.0E-06 M)
O=C(Cc1ccccc1)Nc1ccc(F)c(Nc2ccc3c(c2)CCCCC3=O)c1 [Compound 100] | 90 % of control | 100 % of control | 94 % of control | 96 % of control | 76 % of control | 98 % of control | 131 % of control | 125 % of control | 82 % of control | 98 % of control | 119 % of control | 102 % of control | 92 % of control | 87 % of control | 79 % of control | 87 % of control
O=C(Nc1ccc(F)c(Nc2ccc3c(c2)CCCCC3=O)c1)c1cccc(F)c1 [Compound 109] | 97 % of control | 97 % of control | 91 % of control | 95 % of control | 95 % of control | 110 % of control | 114 % of control | 103 % of control | 66 % of control | 107 % of control | 87 % of control | 106 % of control | 81 % of control | 82 % of control | 97 % of control | 88 % of control

Source: paper PMC9030254, “Target Hopping from Protein Kinases to PXR: Identification of Small-Molecule Protein Kinase Inhibitors as Selective Modulators of Pregnane X Receptor from TüKIC Library” (Cells, 2022)
